Source: ChEMBL document CHEMBL1201862, “PubChem BioAssay data set” (2004)
Where “and” joins values, the source holds several entries; their conditions need not be identical. Equal values may be shown once.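 Where inhibition never reached the appropriate level, the endpoint shown equals the highest concentration tested. Otherwise, values were interpolated linearly from a five-concentration, 48-hour dose response in 96-well plates. GI50 is the concentration that inhibits growth by half.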 Calls of active or inactive are those of the source. Rule as the data show it: active = GI50 up to about 1.1 µM and inactive = higher.

How the values were obtained:
Experiment in all cases: DTP human tumour cell line panel, 48 h
DLD-1 = system: DLD-1
U-251 = system: U-251
SNB-75 = system: SNB-75
RPMI-8226 = system: RPMI-8226
SF-268 = system: SF-268
MOLT-4 = system: MOLT-4
IGROV-1 = system: IGROV-1
NCI-H23 = system: NCI-H23
ACHN = system: ACHN
HCT-116 = system: HCT-116
HT-29 = system: HT-29
SK-MEL-2 = system: SK-MEL-2
CAKI-1 = system: CAKI-1
A549 = system: A549
HOP-92 = system: HOP-92
RXF 393 = system: RXF 393
OVCAR-8 = system: OVCAR-8
SK-OV-3 = system: SK-OV-3
XF498 = system: XF498
KM-20L2 = system: KM-20L2
NCI-H226 = system: NCI-H226
M14 = system: M14
SW-620 = system: SW-620
K562 = system: K562
SK-MEL-28 = system: SK-MEL-28
LXFL 529 = system: LXFL 529
SK-MEL-5 = system: SK-MEL-5
SF-295 = system: SF-295
M19-MEL = system: M19-MEL
UACC-257 = system: UACC-257
CCRF-CEM = system: CCRF-CEM
KM12 = system: KM12
OVCAR-4 = system: OVCAR-4
HL-60 = system: HL-60
TK-10 = system: TK-10
DMS-114 = system: DMS-114
COLO 205 = system: COLO 205
786-0 = system: 786-0
EKVX = system: EKVX
SN12C = system: SN12C
HOP-62 = system: HOP-62
HCT-15 = system: HCT-15
NCI-H522 = system: NCI-H522
NCI-H460 = system: NCI-H460
OVCAR-3 = system: OVCAR-3
SR = system: SR
SF-539 = system: SF-539
Malme-3M = system: Malme-3M
UACC-62 = system: UACC-62
SNB-78 = system: SNB-78
OVCAR-5 = system: OVCAR-5
PC-3 = system: PC-3
NCI/ADR-RES = system: NCI/ADR-RES
MDA-MB-231 = system: MDA-MB-231
MCF7 = system: MCF7
DU-145 = system: DU-145
HCC 2998 = system: HCC 2998
Hs-578T = system: Hs-578T
SNB-19 = system: SNB-19
MDA-N = system: MDA-N
A498 = system: A498
MDA-MB-435 = system: MDA-MB-435
BT-549 = system: BT-549
LOX IMVI = system: LOX IMVI
T47D = system: T47D
UO-31 = system: UO-31
DMS-273 = system: DMS-273

For `C=CCC1([C@H](C)[C@@H](OC(C)=O)c2cc(OC)c(OC)c(OC)c2)C[C@@H](OC)CCC1=O` (some centres undefined), the GI50 (DLD-1) was 16.2 µM (inactive), the GI50 (U-251) was 13.8 µM (inactive) and the GI50 (SNB-75) was 18 µM (inactive). For the same molecule, the GI50 (RPMI-8226) was 10.8 µM (inactive), the GI50 (SF-268) was 13.7 µM (inactive) and the GI50 (MOLT-4) was 18.6 µM (inactive). For the same molecule, the GI50 (IGROV-1) was 19.1 µM (inactive), the GI50 (NCI-H23) was 9.59 µM (inactive) and the GI50 (ACHN) was 19.8 µM (inactive). The GI50 (HCT-116) was 13.1 µM (inactive), the GI50 (HT-29) was 14.1 µM (inactive) and the GI50 (SK-MEL-2) was 15.3 µM (inactive). The GI50 (CAKI-1) was 70.8 µM (inactive), the GI50 (A549) was 27.7 µM (inactive) and the GI50 (HOP-92) was 23 µM (inactive). The GI50 (RXF 393) was 12.9 µM (inactive), the GI50 (OVCAR-8) was 17 µM (inactive) and the GI50 (SK-OV-3) was 59.4 µM (inactive). For the same molecule, the GI50 (XF498) was 17.9 µM (inactive), the GI50 (KM-20L2) was 12 µM (inactive) and the GI50 (NCI-H226) was 22.5 µM (inactive). For the same molecule, the GI50 (M14) was 15.6 µM (inactive), the GI50 (SW-620) was 13.7 µM (inactive) and the GI50 (K562) was 16.4 µM (inactive). The GI50 (SK-MEL-28) was 23.6 µM (inactive), the GI50 (LXFL 529) was 14.3 µM (inactive) and the GI50 (SK-MEL-5) was > 100 µM (inactive). For the same molecule, the GI50 (SF-295) was 16 µM (inactive), the GI50 (M19-MEL) was 15.6 µM (inactive) and the GI50 (UACC-257) was > 10 µM (inactive). The GI50 (CCRF-CEM) was 3.3 µM (inactive), the GI50 (KM12) was 16.4 µM (inactive) and the GI50 (OVCAR-4) was 25.5 µM (inactive). The GI50 (HL-60) was 12.8 µM (inactive), the GI50 (TK-10) was 51.3 µM (inactive) and the GI50 (DMS-114) was 12.4 µM (inactive). For the same molecule, the GI50 (COLO 205) was 19.1 µM (inactive), the GI50 (786-0) was 11.7 µM (inactive) and the GI50 (EKVX) was 26.2 µM (inactive). The GI50 (SN12C) was 17.7 µM (inactive), the GI50 (HOP-62) was 35.7 µM (inactive) and the GI50 (HCT-15) was 14.2 µM. For the same molecule, the GI50 (NCI-H522) was 11.1 µM (inactive), the GI50 (NCI-H460) was 17.7 µM (inactive) and the GI50 (OVCAR-3) was 20.7 µM (inactive). The GI50 (SR) was 22.3 µM (inactive), the GI50 (SF-539) was 16.4 µM (inactive) and the GI50 (Malme-3M) was 17.2 µM (inactive). For the same molecule, the GI50 (UACC-62) was 16.1 µM (inactive).
In the case of `CC(C)=CCCC1(C)C=Cc2c(ccc3c2[nH]c2cc(O)c(C)cc23)O1` (centres undefined), the GI50 (RPMI-8226) is reported as 6.59 µM (inactive), the GI50 (SNB-78) is reported as 13 µM (inactive) and the GI50 (OVCAR-8) is reported as 3.81 µM (inactive). The GI50 (OVCAR-4) was 7.94 µM (inactive), the GI50 (OVCAR-5) was 19.4 µM (inactive) and the GI50 (DMS-114) was 7.14 µM (inactive). The GI50 (OVCAR-3) was 4.75 µM (inactive).
In the case of `COc1ccc2c(=O)c3ccoc3n(CC=C(C)C)c2c1` [ACROPHYLLINE], the GI50 (PC-3) is reported as 36.4 µM (inactive), the GI50 (U-251) is reported as > 100 µM (inactive) and the GI50 (SNB-75) is reported as 26.4 µM (inactive). For the same molecule, the GI50 (RPMI-8226) was 22.4 µM (inactive), the GI50 (NCI/ADR-RES) was 18.8 µM (inactive) and the GI50 (SF-268) was 78.2 µM (inactive). For the same molecule, the GI50 (MOLT-4) was 25.2 µM (inactive), the GI50 (IGROV-1) was 74.5 µM (inactive) and the GI50 (NCI-H23) was 46.1 µM (inactive). For the same molecule, the GI50 (ACHN) was 8.49 µM (inactive), the GI50 (HCT-116) was 52.7 µM (inactive) and the GI50 (MDA-MB-231) was 72.9 µM (inactive). The GI50 (HT-29) was 47.2 µM (inactive), the GI50 (SK-MEL-2) was 81.7 µM (inactive) and the GI50 (CAKI-1) was 2.99 µM (inactive). The GI50 (A549) was 7.14 µM (inactive), the GI50 (HOP-92) was > 26.2 µM (inactive) and the GI50 (RXF 393) was 28.5 µM (inactive). For the same molecule, the GI50 (OVCAR-8) was 39.5 µM (inactive), the GI50 (MCF7) was 33.7 µM (inactive) and the GI50 (SK-OV-3) was 44.7 µM (inactive). For the same molecule, the GI50 (DU-145) was 34 µM (inactive), the GI50 (NCI-H226) was > 87.9 µM (inactive) and the GI50 (M14) was 64.4 µM (inactive). The GI50 (HCC 2998) was > 91.4 µM (inactive), the GI50 (SW-620) was 97.3 µM (inactive) and the GI50 (K562) was 48.9 µM (inactive). The GI50 (SK-MEL-28) was 60.5 µM (inactive), the GI50 (SK-MEL-5) was 32 µM (inactive) and the GI50 (SF-295) was 57.9 µM (inactive). For the same molecule, the GI50 (Hs-578T) was 31.3 µM (inactive), the GI50 (SNB-19) was > 76.6 µM (inactive) and the GI50 (UACC-257) was 75.2 µM (inactive). For the same molecule, the GI50 (CCRF-CEM) was 39.4 µM (inactive), the GI50 (MDA-N) was 73.8 µM (inactive) and the GI50 (KM12) was 45.9 µM (inactive). The GI50 (A498) was > 63.2 µM (inactive), the GI50 (MDA-MB-435) was 75.9 µM (inactive) and the GI50 (OVCAR-4) was 44.7 µM (inactive). For the same molecule, the GI50 (BT-549) was 35.4 µM (inactive), the GI50 (HL-60) was 23.6 µM (inactive) and the GI50 (TK-10) was > 100 µM (inactive). The GI50 (OVCAR-5) was > 100 µM (inactive), the GI50 (COLO 205) was > 85.3 µM (inactive) and the GI50 (786-0) was > 91.6 µM (inactive). The GI50 (EKVX) was 43.9 µM (inactive), the GI50 (SN12C) was > 100 µM (inactive) and the GI50 (LOX IMVI) was 42.3 µM (inactive). For the same molecule, the GI50 (T47D) was 36.1 µM (inactive), the GI50 (HOP-62) was > 79.1 µM (inactive) and the GI50 (UO-31) was 18.2 µM (inactive). For the same molecule, the GI50 (HCT-15) was 35.6 µM, the GI50 (NCI-H522) was 2.65 µM (inactive) and the GI50 (NCI-H460) was 50.2 µM (inactive). The GI50 (OVCAR-3) was 85.7 µM (inactive), the GI50 (SR) was 31 µM (inactive) and the GI50 (SF-539) was 97.1 µM (inactive). The GI50 (Malme-3M) was 3.84 µM (inactive) and the GI50 (UACC-62) was 48.4 µM (inactive).
For `C/C=C/C=C/CCCCCCCCCCCCC[C@]1(OC)C=C[C@@H](CC(=O)OC)OO1` [XESTIN A], the GI50 (U-251) was 14.7 µM (inactive) and > 10 µM (inactive), the GI50 (SNB-75) was 17.4 µM (inactive) and 9.64 µM (inactive) and the GI50 (RPMI-8226) was 7.45 µM (inactive) and 13.5 µM (inactive). For the same molecule, the GI50 (SF-268) was 17.3 µM (inactive) and 21.7 µM (inactive), the GI50 (HCT-116) was 16.1 µM (inactive) and 10.1 µM (inactive) and the GI50 (SK-MEL-2) was 15.5 µM (inactive) and 25.5 µM (inactive). For the same molecule, the GI50 (HOP-92) was 1.88 µM (inactive), the GI50 (SK-OV-3) was 28.6 µM (inactive) and 19.5 µM (inactive) and the GI50 (M14) was 14.8 µM (inactive) and 17 µM (inactive). The GI50 (K562) was 12.2 µM (inactive) and 20.5 µM (inactive), the GI50 (SK-MEL-28) was 15.3 µM (inactive) and 17.5 µM (inactive) and the GI50 (SK-MEL-5) was 15.6 µM (inactive) and 10.1 µM (inactive). The GI50 (M19-MEL) was 16.9 µM (inactive) and 11 µM (inactive), the GI50 (SNB-19) was 17.8 µM (inactive) and the GI50 (UACC-257) was 20.2 µM (inactive) and 17.4 µM (inactive). The GI50 (HL-60) was 3.59 µM (inactive), the GI50 (SN12C) was 12.9 µM (inactive) and 21.6 µM (inactive) and the GI50 (UO-31) was 2.77 µM (inactive). The GI50 (DMS-273) was 1.57 µM (inactive), the GI50 (NCI-H460) was 22.4 µM (inactive) and 15.1 µM (inactive) and the GI50 (SR) was 2.36 µM (inactive). For the same molecule, the GI50 (SF-539) was 15.2 µM (inactive) and 19.7 µM (inactive), the GI50 (Malme-3M) was 26.7 µM (inactive) and 21.4 µM (inactive) and the GI50 (UACC-62) was 14.1 µM (inactive) and 15.3 µM (inactive).
